The species named for the assay is Rattus norvegicus. The experiment in a line: Dose required to prevent loss of total bone mineral density of rat distal femur. Format: functional.

Molecules are shown by their SMILES.

`Cl.Oc1ccc2c(c1)CCC21C=C(c2ccc(OCCN3CCCCC3)cc2)c2cc(O)ccc21` (single isomer, unassigned; (+)) yielded a Dose of 0.1 mg/kg/day.

Values taken from ChEMBL document CHEMBL1145078, “Discovery and preclinical characterization of (+)-3-[4-(1- piperidinoethoxy)phenyl]spiro[indene- 1,1'-indane]-5,5'-diol hydrochloride: a promising nonsteroidal estrogen receptor agonist for hot flush” (J Med Chem, 2003).
